Consider nine compounds from PMC4811503, “A method for quantification of exportin-1 (XPO1) occupancy by Selective Inhibitor of Nuclear Export (SINE) compounds” (Oncotarget, 2015).

Where two headings read alike, the source gives them in different places.

Series [1] has as its system nuclear export of the XPO1 cargo protein Rev-GFP in stably transfected U2OS cells. The experiment in a line: Rev-GFP assay (nuclear retention of Rev-GFP). The class given is cell-based. As to conditions: Homo sapiens. From the text: (§1) For this assay we utilized biotinylated LMB (b-LMB) as a tool compound to quantify the amount of XPO1 bound by SINE compounds (Figure 1). b-LMB was synthesized by coupling a biotin tag to LMB. We compared the inhibition of nuclear export and the cytotoxicity of b-LMB to that of the unmodified LMB. […] We then quantified the effects of these compounds on cell death in several cancer cell lines using an MTT cytotoxicity assay (Table 2).
For the typical Rev-GFP assay, U2OS cells stably expressing Rev-GFP [42] were cultured in 96 well plates at 7,500 - 15,000 cells/well. […] After fixation cells were stained with DAPI (Invitrogen) for 10 minutes at room temperature. Cells were imaged with a Nikon fluorescent microscope at 10X magnification and intensity of the GFP and nuclear area were measured and recorded. Cells were scored as either GFP nuclear positive or negative. Number of positive cells were divided by total number of cells in order to calculate percentage of cells with nuclear GFP per well.

The next series deals with MM.1S. Description: MTT cytotoxicity assay. The conditions noted are these: Homo sapiens, MM1.S, 72 hours, read-out: IC50. It is filed as cell-based. In general terms: Formazan colour is commonly taken as a measure of viable cells.
In another series the test system is HCT-116. Description: MTT cytotoxicity assay. It is filed as cell-based. As to conditions: Homo sapiens, 72 hours, read-out: IC50.
The subject of another series is AML2. Description: MTT cytotoxicity assay. The class given is cell-based. As to conditions: 72 hours, read-out: IC50.
For the next series, the system named is AML3. Description: MTT cytotoxicity assay. The class given is cell-based. As to conditions: 72 hours, read-out: IC50.
Series [2] is described as follows: MTT assay of unmodified and biotinylated SINE compounds (cell line not given). It is filed as cell-based. As to conditions: for IC50: cell line not named; for fold less cytotoxic compared to unmodified counterpart: ratio of MTT IC50 values.
The target of a further series is XPO1 (Homo sapiens, UniProt O14980). The experiment in a line: XPO1 occupancy assay in cultured cell lines (biotinylated probe pull-down, Simple Western). It is filed as cell-based. Also noted: Cells were collected, washed with PBS, and lysed with RIPA Buffer; endogenous in cells; host or cells: MM.1S. As to conditions: MM.1S cells. As to the method:
b-LMB was tested for the ability to bind XPO1 protein. First, a dose-response curve was generated by exposing MM.1S cells to increasing concentrations of b-LMB (0 – 500 nM) for 1.5 hours in culture. The cells were then collected, lysed, and a portion of the lysate (input) was reserved prior to incubating the remaining lysate with streptavidin-tagged beads overnight. After extensive washes, b-LMB bound XPO1 was eluted from the beads, and XPO1 from both input and bead eluate was detected and quantified by Simple Western on Peggy Sue. Simple Western allows for the chemiluminescent detection of proteins from small volumes of samples that are run through a matrix-filled capillary. The signal is detected by a CCD camera which generates a digital image and then reports quantitative results. […] The protein signals for XPO1 detected by Simple Western in Figure 2A were reported as mean peak areas and were used to compare levels of XPO1 present in each sample to produce a graphical representation of the ratio of free XPO1 detected at each concentration of b-LMB (Figure 2B). “Ratio of bound XPO1” is defined as the ratio of the mean peak area of b-LMB bound XPO1 detected in the eluate compared to the mean peak area of all XPO1 detected in the input lysate, while “free-fraction” refers to the amount of XPO1 not occupied by SINE compound, as described later.
The cells were then collected and processed for the XPO1 occupancy assay. […] For these assays, the “ratio of free-fraction XPO1” is calculated by dividing the mean peak areas of XPO1 occupied by b-LMB (from the eluate) by the total amount of XPO1 (from the input).
Cells were collected, washed with PBS, and lysed with RIPA Buffer (Thermo Scientific) with protease inhibitors [Complete Ultra Tablets, Mini, EDTA-free, Easy pack (Roche), PhosStop Easy (Roche)]. A portion of the lysate was reserved (input) while the rest was added to washed Dynabeads MyOne Streptavidin T1 (Invitrogen) with RIPA Buffer. Samples were incubated overnight with constant rotation at 4°C. Beads were then washed 5 times with modified RIPA (150 mM NaCl, 50 mM Tris, 1% NP-40, 0.1% Na deoxycholate, 1 mM EDTA, pH 7.8). The reserved portion of lysates (input) and the beads were each mixed with Protein Simple buffer (Protein Simple), DTT (Invitrogen), and fluorescent standards (Protein Simple), then boiled at 95°C for 10 min. Eluates and inputs were analyzed using a capillary western method (Peggy Sue; Protein Simple) with the following primary antibodies: XPO1 (Santa Cruz) and β-actin (Santa Cruz). Capillary westerns were performed by SBH Sciences (Natick, MA). Peak areas corresponding to the protein molecular weight of XPO1 and actin were compared for sample inputs, while the ratio of XPO1 peak areas in eluate to input (ratio of bound or free-fraction XPO1) versus compound concentration were used in XLFit model 205 to calculate 50% and 90% occupancy curves.

Series [3] deals with several cancer cell lines. As to conditions: human, 72 h. The method, then:
as §1
Cells were seeded in 96-well flat-bottom culture plates. […] Triplicate wells per concentration were used to calculate IC50 curves. The CellTiter-Fluor Cell Viability Assay (Promega) was performed as instructed by the manufacturer. The whole procedure was repeated three times. The inhibitory rate of cell growth was calculated using the formula: % growth inhibition = (1− OD extract treated)/OD negative control × 100).

Where [4] appears, read: 4 h, read-out: Rev-GFP (nM), U2OS cells stably expressing Rev-GFP, 4 hours treatment.
Where [5] appears, read: read-out: Rev GFP IC50 (nM), U2OS Rev-GFP cells, unmodified and biotinylated SINE compounds.
Setting [6] is: biotinylated SINE compound alone, direct binding.
Where [7] appears, read: biotinylated SINE compound alone, direct binding, read-out: 50% Occupancy.
Where [8] appears, read: read-out: Rev-GFP IC50 (μM), U2OS Rev-GFP cells.
Where [9] appears, read: SINE compound 1 hour, then 1 nM b-LMB […].
Setting [10] is: SINE compound 1 hour, then 1 nM b-LMB […], read-out: Avg 50% Occupancy.

Sequence of XPO1 (O14980 whole entry): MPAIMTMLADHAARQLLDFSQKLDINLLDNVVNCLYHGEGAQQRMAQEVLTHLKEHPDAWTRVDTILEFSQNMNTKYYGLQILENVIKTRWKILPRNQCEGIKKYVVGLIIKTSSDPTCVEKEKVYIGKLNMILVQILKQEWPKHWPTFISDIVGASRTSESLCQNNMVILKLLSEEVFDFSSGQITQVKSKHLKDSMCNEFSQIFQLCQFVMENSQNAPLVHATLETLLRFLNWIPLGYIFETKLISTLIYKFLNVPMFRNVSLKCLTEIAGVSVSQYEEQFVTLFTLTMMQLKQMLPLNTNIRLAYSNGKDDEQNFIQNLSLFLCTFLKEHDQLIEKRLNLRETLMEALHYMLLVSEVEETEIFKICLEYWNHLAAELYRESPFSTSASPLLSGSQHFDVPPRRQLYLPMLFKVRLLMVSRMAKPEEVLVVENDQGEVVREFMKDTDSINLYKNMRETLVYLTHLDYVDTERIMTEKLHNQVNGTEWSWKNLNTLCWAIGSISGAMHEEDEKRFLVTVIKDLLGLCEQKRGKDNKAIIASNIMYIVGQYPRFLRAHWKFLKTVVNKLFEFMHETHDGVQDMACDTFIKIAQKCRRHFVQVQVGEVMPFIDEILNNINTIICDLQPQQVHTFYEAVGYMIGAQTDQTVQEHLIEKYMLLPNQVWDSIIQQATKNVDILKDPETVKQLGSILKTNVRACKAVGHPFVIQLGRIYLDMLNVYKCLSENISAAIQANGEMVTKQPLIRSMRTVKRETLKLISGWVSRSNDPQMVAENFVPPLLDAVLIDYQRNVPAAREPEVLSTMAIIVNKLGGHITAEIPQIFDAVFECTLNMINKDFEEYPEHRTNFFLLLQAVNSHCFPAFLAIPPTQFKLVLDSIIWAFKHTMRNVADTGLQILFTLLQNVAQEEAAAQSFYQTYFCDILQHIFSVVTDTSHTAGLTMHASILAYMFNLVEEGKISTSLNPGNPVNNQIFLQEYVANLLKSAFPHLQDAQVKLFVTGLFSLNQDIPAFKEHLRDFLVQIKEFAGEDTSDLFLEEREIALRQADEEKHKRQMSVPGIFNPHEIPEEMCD

Take `CCC(=C/[C@H](C)C/C=C/C(C)=C/[C@@H](C)C(=O)[C@@H](C)[C@H](O)[C@@H](C)C/C(C)=C/C(=O)O)/C=C/[C@@H]1OC(=O)C=C[C@@H]1C` [LMB, leptomycin B, reference compound]: the IC50 in series [1] (setting [4]) came out at 0.16 nM; in the series on MM.1S, 0.46 nM; in the series on HCT-116 it was 0.19 nM; with AML2 it was 0.39 nM; in the series with AML3, 0.68 nM.
With `NC(=O)/C(=C/n1cnc(-c2cc(OC(=O)CCCC[C@@H]3SC[C@@H]4NC(=O)N[C@@H]43)cc(C(F)(F)F)c2)n1)c1cncnc1` [KPT-9511], in series [1] (setting [5]), the IC50 came out at 230 nM. Moreover, in series [2], the IC50 was 280 nM and the “fold less cytotoxic compared to unmodified counterpart” value was approximately 15 fold. Also, the “90% Occupancy” value at XPO1 (setting [6]) was 0.61 µM. On XPO1 (setting [7]), the EC50 was found to be 180 nM.
Turning to `CCC(C=CC1OC(=O)C=CC1C)=CC(C)CC=CC(C)=CC(C)C(=O)C(C)C(O)C(C)CC(C)=CC(=O)NCCCCCCNC(=O)CCCCC1SCC2NC(=O)NC21` (stereo not shown) [b-LMB, reference compound], the IC50 in series [1] (setting [4]) came out at 0.11 nM; with MM.1S it was 3.1 nM; with HCT-116, 6 nM; in the series with AML2, 2.53 nM; with AML3, 4.68 nM. Moreover, the “fold less cytotoxic than unmodified LMB” value in series [3] is listed as 6 – 30 fold. Also, the “amount of b-LMB necessary to occupy 90% of XPO1” value at XPO1 (b-LMB […], direct binding, n = 3) is 2.53 ± 1.72 nM. Moreover, the EC50 on XPO1 (b-LMB […], direct binding, n = 3, read-out: amount of b-LMB necessary to occupy 50% of XPO1) was determined as 0.27 nM.
As to `CC(C)(C)C(=O)NNC(=O)/C=C\n1cnc(-c2cc(C(F)(F)F)cc(C(F)(F)F)c2)n1` [KPT-350], the IC50 in series [1] (setting [8]) turned out to be 170 nM. Further, the “Avg 90% Occupancy (μM)” value on XPO1 (setting [9]) is on record as 6.45 +/− 3.36 (n = 3) μM. For the same compound, the EC50 on XPO1 (setting [10]) stood at 630 nM.
Taken in the same sequence, the figures for `O=C(/C=C\n1cnc(-c2cc(C(F)(F)F)cc(C(F)(F)F)c2)n1)NNc1ccccn1` [Verdinexor, verdinexor] were 10 nM, 0.34 +/− 0.08 (n = 3) μM and 40 nM.
Regarding `NC(=O)/C(=C/n1cnc(-c2cc(C(F)(F)F)cc(C(F)(F)F)c2)n1)c1cncnc1` [KPT-8602], the IC50 was 42 nM in series [1] (setting [5]), 40 nM in series [1] (setting [8]) and 19 nM in series [2]. For the same compound, the “Avg 90% Occupancy (μM)” value at XPO1 (setting [9]) is recorded as 1.1 +/− 1.03 (n = 2) μM. Further, the “90% Occupancy” value on XPO1 (followed by 0.1 μM KPT-9511 as probe) came to 0.11 µM.
As for `COc1cc(-c2ncn(/C=C/C(=O)OC(C)C)n2)cc(C(F)(F)F)c1` [KPT-301], at XPO1 (0 – 10 μM, then 1 nM b-LMB, data not shown), the “XPO1 binding in the occupancy assay (negative control)” value is listed as “no XPO1 bound”.
In the case of `O=C(/C=C\n1cnc(-c2cc(C(F)(F)F)cc(C(F)(F)F)c2)n1)N1CC(F)(F)C1` [KPT-276], the IC50 in series [1] (setting [5]) was found to be 53 nM; in series [2], 18 nM.
Take `O=C1N[C@H]2[C@H](CS[C@H]2CCCCC(=O)Oc2cc(-c3ncn(/C=C\C(=O)N4CC(F)(F)C4)n3)cc(C(F)(F)F)c2)N1` [KPT-9058]: the IC50 in series [1] (setting [5]) was 961 nM. Moreover, in series [2], the IC50 came to 110 nM and the “fold less cytotoxic compared to unmodified counterpart” value is approximately 6 fold. Further, the “90% Occupancy” value on XPO1 (setting [6]) is 0.69 µM. Also, the EC50 at XPO1 (setting [7]) is 120 nM.
